In ChEMBL document CHEMBL5143541, “Novel structural-related analogs of PFI-3 (SRAPs) that target the BRG1 catalytic subunit of the SWI/SNF complex increase the activity of temozolomide in glioblastoma cells” (Bioorg Med Chem, 2022):
Active and inactive are the calls of the source. The calls are words filed in the database; no cut-off is given here.

Columns and labels:
[1] = system: MT330; test: Induction of cell death in human MT330 cells assessed as reduction in cell viability at 2 uM combination with TMZ after 3 days by ELISA; type: functional, cell-based; conditions: time 3.0 day
[2] = system: MT330; test: Induction of cell death in human MT330 cells assessed as reduction in cell viability at 2 uM after 3 days by ELISA; type: functional, cell-based; conditions: time 3.0 day
[3] = system: LN-229; test: Antiproliferative activity against human LN-229 cells assessed as reduction in cell viability at 80 uM up to 7 days by incucyte live cell assay; type: functional, cell-based; conditions: time <= 7.0 day
[4] = system: MT330; test: Induction of cell death in human MT330 cells assessed as reduction in cell viability at 50 uM after 3 days by ELISA; type: functional, cell-based; conditions: time 3.0 day
[5] = system: LN-229; test: Antiproliferative activity against human LN-229 cells assessed as reduction in cell viability at 2 uM combination with TMZ up to 7 days by incucyte live cell assay; type: functional, cell-based; conditions: time <= 7.0 day
[6] = system: LN-229; test: Antiproliferative activity against human LN-229 cells assessed as reduction in cell viability at 2 uM up to 7 days by incucyte live cell assay; type: functional, cell-based; conditions: time <= 7.0 day
[7] = system: MT330; test: Anti-tumor activity against human MT330 cells xenografted in NSG mouse assessed as reduction in tumor growth at 10 mg/kg, ip for alterate days combination with TMZ and measured after 2 weeks; type: functional, organism-based
[8] = system: MT330; test: Anti-tumor activity against human MT330 cells xenografted in NSG mouse assessed as reduction in tumor growth at 10 mg/kg, ip for alterate days combination with TMZ and measured after 8 weeks; type: functional, organism-based
[9] = biological target: SWI/SNF-related matrix-associated actin-dependent regulator of chromatin subfamily A member 4 (Homo sapiens) (UniProt P51532); test: Binding affinity to epitope-tagged BRG1 bromodomain (unknown origin) expressed in MT330 cells assessed as thermostability at < 54.2 degC at 30 uM for 2 hrs by […]; type: cell-based
SWI/SNF-related matrix-associated actin-dependent regulator of chromatin subfamily A member 4 (Homo sapiens), sequence (P51532 whole entry): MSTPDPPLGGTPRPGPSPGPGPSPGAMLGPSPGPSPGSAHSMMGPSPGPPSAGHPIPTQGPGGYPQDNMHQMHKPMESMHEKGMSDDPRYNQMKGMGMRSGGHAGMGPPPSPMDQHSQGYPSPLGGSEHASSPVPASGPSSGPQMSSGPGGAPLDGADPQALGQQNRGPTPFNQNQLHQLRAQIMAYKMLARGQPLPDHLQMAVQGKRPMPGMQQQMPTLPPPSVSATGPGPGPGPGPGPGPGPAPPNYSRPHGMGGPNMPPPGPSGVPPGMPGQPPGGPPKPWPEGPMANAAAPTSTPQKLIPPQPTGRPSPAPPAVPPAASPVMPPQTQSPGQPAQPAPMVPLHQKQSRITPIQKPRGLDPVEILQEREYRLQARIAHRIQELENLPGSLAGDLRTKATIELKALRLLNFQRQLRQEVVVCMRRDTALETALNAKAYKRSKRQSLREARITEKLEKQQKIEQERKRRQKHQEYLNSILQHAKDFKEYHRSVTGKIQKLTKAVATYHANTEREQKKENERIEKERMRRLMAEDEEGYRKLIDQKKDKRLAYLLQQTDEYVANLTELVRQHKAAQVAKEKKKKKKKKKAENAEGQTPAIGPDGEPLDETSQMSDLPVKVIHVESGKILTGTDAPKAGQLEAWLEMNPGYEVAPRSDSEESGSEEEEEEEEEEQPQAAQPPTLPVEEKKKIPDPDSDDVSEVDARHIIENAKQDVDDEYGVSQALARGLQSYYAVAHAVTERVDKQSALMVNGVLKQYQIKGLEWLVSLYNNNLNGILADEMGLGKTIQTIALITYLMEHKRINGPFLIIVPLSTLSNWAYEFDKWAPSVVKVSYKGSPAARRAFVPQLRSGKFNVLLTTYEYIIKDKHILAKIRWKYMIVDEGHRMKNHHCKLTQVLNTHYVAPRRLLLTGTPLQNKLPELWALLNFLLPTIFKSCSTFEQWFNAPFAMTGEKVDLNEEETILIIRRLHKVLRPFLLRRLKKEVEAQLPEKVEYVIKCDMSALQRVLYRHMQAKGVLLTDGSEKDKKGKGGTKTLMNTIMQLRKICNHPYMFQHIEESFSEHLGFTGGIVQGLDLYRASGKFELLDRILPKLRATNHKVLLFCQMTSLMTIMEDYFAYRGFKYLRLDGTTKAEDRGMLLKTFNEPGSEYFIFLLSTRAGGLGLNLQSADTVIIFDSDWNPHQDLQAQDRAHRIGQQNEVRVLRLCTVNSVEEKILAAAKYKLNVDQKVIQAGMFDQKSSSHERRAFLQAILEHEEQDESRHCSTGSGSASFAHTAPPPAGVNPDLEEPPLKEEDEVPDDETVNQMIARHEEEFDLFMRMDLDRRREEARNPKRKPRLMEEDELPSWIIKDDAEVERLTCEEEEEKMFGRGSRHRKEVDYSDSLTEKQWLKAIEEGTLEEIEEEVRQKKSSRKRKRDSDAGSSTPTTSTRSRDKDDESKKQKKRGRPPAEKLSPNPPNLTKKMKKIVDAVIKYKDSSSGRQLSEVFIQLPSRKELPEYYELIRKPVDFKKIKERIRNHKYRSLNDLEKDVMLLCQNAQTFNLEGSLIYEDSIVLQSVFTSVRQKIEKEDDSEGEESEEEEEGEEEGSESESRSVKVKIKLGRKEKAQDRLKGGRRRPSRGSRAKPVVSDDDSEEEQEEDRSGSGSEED

Row | SMILES | Activity [1] | Activity [2] | further results
1 | O=C(/C=C/N1C[C@H]2C[C@@H]1CN2c1ccccn1)c1cc(Br)ccc1O | Active | Active | 
2 | Cn1nnc2c(C(N)=O)ncn2c1=O |  |  | Activity [3]: Active; Activity [4]: Active
3 | O=C(/C=C/N1C[C@H]2C[C@@H]1CN2c1ccccn1)c1ccccc1Cl | Active | Active | 
4 | O=C(/C=C/N1C[C@H]2C[C@@H]1CN2c1ccc(F)cc1)c1ccccc1 | Active | Active | Activity [5]: Active; Activity [6]: Active; TGI [7]: Active; TGI [8]: Active
5 | O=C(/C=C/N1C[C@H]2C[C@@H]1CN2c1ccccn1)c1cc(Br)cc(Br)c1O | Active | Active | Activity [5]: Active; Activity [6]: Active; TGI [7]: Active; TGI [8]: Active
6 | O=C(/C=C/N1C[C@H]2C[C@@H]1CN2c1ccc(F)cc1)c1ccccc1Cl | Active | Active | 
7 | O=C(/C=C/N1C[C@H]2C[C@@H]1CN2c1ccccn1)c1cc(F)ccc1O | Active | Active | 
8 | O=C(/C=C/N1C[C@H]2C[C@@H]1CN2c1ccccn1)c1ccc(Cl)cc1O | Active | Active | 
9 | O=C(/C=C/N1C[C@H]2C[C@@H]1CN2c1ccc(F)cc1)c1cc(F)ccc1O | Active | Active | 
10 | COc1ccc(N2C[C@H]3C[C@@H]2CN3/C=C/C(=O)c2ccccc2Cl)cc1 | Active | Active | 
11 | COc1ccc(N2C[C@H]3C[C@@H]2CN3/C=C/C(=O)c2cc(F)ccc2O)cc1 | Active | Active | 
12 | O=C(/C=C/N1C[C@H]2C[C@@H]1CN2c1ccc(F)cc1)c1ccccc1O | Active | Active | 
13 | O=C(/C=C/N1C[C@H]2C[C@@H]1CN2c1ccccn1)c1ccccc1O | Active | Active | Activity [5]: Active; Activity [9]: Active; Activity [6]: Active; TGI [7]: Active; TGI [8]: Active
14 | COc1ccc(N2C[C@H]3C[C@@H]2CN3/C=C/C(=O)c2ccccc2O)cc1 | Active | Active | 
